Data from patent publication US4622417A, “L-aminodicarboxylic-(O-cycloalkyl)-L-aminocarboxylate alkyl ester sweeteners” (General Foods Corporation, priority 1984, dated 1986).
Peptide text beside a SMILES is read from it. * marks the point of attachment. tBu = CC(C)(C)*

Key:
panel of tasters = assay: Sensory evaluation of sweetness: taste panel matches aqueous solutions of the compound to sucrose standard solutions (sucrose equivalency); type: in vivo; conditions: for Sucrose Equivalent: aqueous solution
Excerpt: A taste procedure for determination of sweetness merely involves the determination of sucrose equivalency. Sucrose equivalence for sweeteners are readily determined. The amount of a sweetener that is equivalent to a given weight percent sucrose can be determined by having a panel of tasters taste solutions of a sweetener at known concentrations and match its sweetness to standard solutions of sucrose. The following sensory evaluations were obtained by a panel of experts using known weight percent aqueous solutions of the above compound matched to sucrose standard solutions as previously described.

[1] = as reported in the literature; cited from earlier work
[2] = 0.005% concentration of compound
[3] = 0.01% concentration of compound
[4] = 0.02% concentration of compound
[5] = 0.025% concentration of compound
[6] = 0.05% concentration of compound
[7] = 0.04% concentration of compound
[8] = 0.0025% concentration of compound

With COC(=O)[C@H](CO[C@@]1(C)CCCC[C@H]1C)NC(=O)[C@@H](N)CC(=O)O (single isomer, unassigned) [Example 4 CIS ISOMER, L-aspartyl-O-(cis-1,2-dimethylcyclohexyl)-L-serine methyl ester] the “Sweetness ratio (Compound:Sucrose)” value (panel of tasters; [2]) was 400, the “Sucrose Equivalent” value (panel of tasters; [2]) was 2.0% and the “Sucrose Equivalent” value (panel of tasters; 0.005% concentration of compound, listed as Cis-1,2-dimethylcyclohexyl) was 2%. The “Sweetness ratio (Compound:Sucrose)” value (panel of tasters; [3]) was 400, the “Sucrose Equivalent” value (panel of tasters; [3]) was 4.0% and the “Sucrose Equivalent” value (panel of tasters; 0.01% concentration of compound, listed as Cis-1,2-dimethylcyclohexyl) was 4%. The “Sweetness ratio (Compound:Sucrose)” value (panel of tasters; [4]) was 350, the “Sucrose Equivalent” value (panel of tasters; [4]) was 7.0% and the “Sucrose Equivalent” value (panel of tasters; 0.02% concentration of compound, listed as Cis-1,2-dimethylcyclohexyl) was 7%.

In the case of COC(=O)[C@H](CO[C@]1(C)CCCC[C@H]1C)NC(=O)[C@@H](N)CC(=O)O (single isomer, unassigned) [Example 4 TRANS ISOMER, L-aspartyl-O-(trans-1,2-dimethylcyclohexyl)-L-serine methyl ester], the “Sweetness ratio (Compound:Sucrose)” value (panel of tasters; [2]) is reported as 300, the “Sucrose Equivalent” value (panel of tasters; [2]) is reported as 1.5% and the “Sweetness ratio (Compound:Sucrose)” value (panel of tasters; [3]) is reported as 300. The “Sucrose Equivalent” value (panel of tasters; [3]) was 3.0%, the “Sucrose Equivalent” value (panel of tasters; 0.01% concentration of compound, listed as trans-1,2-dimethylcyclohexyl) was 3% and the “Sweetness ratio (Compound:Sucrose)” value (panel of tasters; [4]) was 250. For the same compound, the “Sucrose Equivalent” value (panel of tasters; [4]) was 5.0% and the “Sucrose Equivalent” value (panel of tasters; 0.02% concentration of compound, listed as trans-1,2-dimethylcyclohexyl) was 5%.

In the case of COC(=O)[C@H](COC1CCCC1(C)C)NC(=O)[C@@H](N)CC(=O)O (stereo partly drawn) [2,2-dimethylcyclopentyl, α-L-aspartyl-O-(2,2-dimethylcyclopentyl)-L-serine methyl ester], the “Sweetness ratio (Compound:Sucrose)” value (panel of tasters; [2]) is reported as 600, the “Sucrose Equivalent” value (panel of tasters; [2]) is reported as 3% and the “Sweetness ratio (Compound:Sucrose)” value (panel of tasters; [3]) is reported as 530. The “Sucrose Equivalent” value (panel of tasters; [3]) was 5.3%, the “Sweetness ratio (Compound:Sucrose)” value (panel of tasters; [5]) was 360 and the “Sucrose Equivalent” value (panel of tasters; [5]) was 9%.

With COC(=O)[C@H](COCCC12C=CC(CC1)C2)NC(=O)[C@@H](N)CC(=O)O (stereo partly drawn) [2-(4-norbornenyl)ethyl, α-L-Aspartyl-O-[2-(4-norbornenyl)ethyl]-L-serine methyl ester] the “Sweetness ratio (Compound:Sucrose)” value (panel of tasters; [6]) was 117 and the “Sucrose Equivalent” value (panel of tasters; [6]) was 5.8%.

With COC(=O)[C@H](COC1CCCCC1C)NC(=O)[C@@H](N)CC(=O)O (stereo partly drawn) [2-cis-methylcyclohexyl, α-L-aspartyl-O-(2-methylcyclohexyl)-L-serine methyl ester] the “Sweetness ratio (Compound:Sucrose)” value (panel of tasters; [2]) was 360, the “Sucrose Equivalent” value (panel of tasters; [2]) was 1.8% and the “Sweetness ratio (Compound:Sucrose)” value (panel of tasters; [3]) was 320. For the same compound, the “Sucrose Equivalent” value (panel of tasters; [3]) was 3.2%, the “Sweetness ratio (Compound:Sucrose)” value (panel of tasters; [5]) was 240 and the “Sucrose Equivalent” value (panel of tasters; [5]) was 6%.

In the case of COC(=O)[C@H](COCCC1CC2CCC1C2)NC(=O)[C@@H](N)CC(=O)O (stereo partly drawn) [2-norbornylethyl, α-L-Aspartyl-O-2-norbornylethyl-L-serine methyl ester], the “Sweetness ratio (Compound:Sucrose)” value (panel of tasters; [7]) is reported as 105 and the “Sucrose Equivalent” value (panel of tasters; [7]) is reported as 4.2%.

For COC(=O)[C@H](COC1(C)CCCCC1)NC(=O)[C@@H](N)CC(=O)O [Example 2, L-aspartyl-O-(1-methylcyclohexyl)-L-serine methyl ester], the “Sweetness ratio (Compound:Sucrose)” value (panel of tasters; [2]) was 400, the “Sucrose Equivalent” value (panel of tasters; [2]) was 2% and the “Sweetness ratio (Compound:Sucrose)” value (panel of tasters; [3]) was 450. The “Sucrose Equivalent” value (panel of tasters; [3]) was 4.5%, the “Sweetness ratio (Compound:Sucrose)” value (panel of tasters; [5]) was 340 and the “Sucrose Equivalent” value (panel of tasters; [5]) was 8.5%.

With COC(=O)[C@H](COC1(C)CCC1)NC(=O)[C@@H](N)CC(=O)O [Example 3, L-aspartyl-O-(1-methylcyclobutyl)-L-serine methyl ester] the “Sweetness ratio (Compound:Sucrose)” value (panel of tasters; [3]) was 200, the “Sucrose Equivalent” value (panel of tasters; [3]) was 2% and the “Sweetness ratio (Compound:Sucrose)” value (panel of tasters; [6]) was 160. For the same compound, the “Sucrose Equivalent” value (panel of tasters; [6]) was 8%.

In the case of CCC1(OC[C@H](NC(=O)[C@@H](N)CC(=O)O)C(=O)OC)CCCC1 [Example 5, L-aspartyl-O-(1-ethylcyclopentyl)-L-serine methyl ester], the “Sweetness ratio (Compound:Sucrose)” value (panel of tasters; [2]) is reported as 400, the “Sucrose Equivalent” value (panel of tasters; [2]) is reported as 2% and the “Sweetness ratio (Compound:Sucrose)” value (panel of tasters; [3]) is reported as 400. For the same compound, the “Sucrose Equivalent” value (panel of tasters; [3]) was 4%, the “Sweetness ratio (Compound:Sucrose)” value (panel of tasters; [4]) was 300 and the “Sucrose Equivalent” value (panel of tasters; [4]) was 6%.

For COC(=O)[C@H](COC1(C)CC=CCC1)NC(=O)[C@@H](N)CC(=O)O (stereo partly drawn) [Example 7, L-aspartyl-O-(1-methylcyclohex-3-enyl)-L-serine methyl ester], the “Sweetness ratio (Compound:Sucrose)” value (panel of tasters; [2]) was 400, the “Sucrose Equivalent” value (panel of tasters; [2]) was 2% and the “Sweetness ratio (Compound:Sucrose)” value (panel of tasters; [3]) was 250. For the same compound, the “Sucrose Equivalent” value (panel of tasters; [3]) was 2.5%, the “Sweetness ratio (Compound:Sucrose)” value (panel of tasters; [5]) was 160 and the “Sucrose Equivalent” value (panel of tasters; [5]) was 4%.

In the case of COC(=O)[C@H](COC(C)(C)C1CC=C(C)CC1)NC(=O)[C@@H](N)CC(=O)O (stereo partly drawn) [Example 8C, α-L-aspartyl-O-[1,1-dimethyl-1-(4-methylcyclohex-3-enyl)methyl]-L-serine methyl ester], the “Sweetness ratio (Compound:Sucrose)” value (panel of tasters; [3]) is reported as 220, the “Sucrose Equivalent” value (panel of tasters; [3]) is reported as 2.2% and the “Sweetness ratio (Compound:Sucrose)” value (panel of tasters; [5]) is reported as 208. For the same compound, the “Sucrose Equivalent” value (panel of tasters; [5]) was 5.2%.

With COC(=O)[C@H](COC(C)(C)C1CCC(C)CC1)NC(=O)[C@@H](N)CC(=O)O (stereo partly drawn) [Example 8D, α-L-aspartyl-O-[1,1-dimethyl-1-(4-methylcyclohexyl)methyl]-L-serine methyl ester] the “Sucrose Equivalent (Sensory Evaluations, Example 8)” value (panel of tasters; 0.01% concentration) was 2.2, the “Sucrose Equivalent (Sensory Evaluations, Example 8)” value (panel of tasters; 0.025% concentration) was 5.2 and the “Sweetness ratio (Compound:Sucrose)” value (panel of tasters; [5]) was 240. For the same compound, the “Sucrose Equivalent” value (panel of tasters; [5]) was 6%, the “Sweetness ratio (Compound:Sucrose)” value (panel of tasters; [6]) was 220 and the “Sucrose Equivalent” value (panel of tasters; [6]) was 11%.

For COC(=O)[C@H](COC1C(C)(C)CCC1(C)C)NC(=O)[C@@H](N)CC(=O)O [Example 10, α-L-Aspartyl-O-2,2,5,5-tetramethylcyclopentyl-L-serine methyl ester], the “Sweetness ratio (Compound:Sucrose)” value (panel of tasters; [8]) was 1200, the “Sucrose Equivalent” value (panel of tasters; [8]) was 3% and the “Sweetness ratio (Compound:Sucrose)” value (panel of tasters; [2]) was 1000. The “Sucrose Equivalent” value (panel of tasters; [2]) was 5%, the “Sweetness ratio (Compound:Sucrose)” value (panel of tasters; [3]) was 800 and the “Sucrose Equivalent” value (panel of tasters; [3]) was 8%.

With COC(=O)[C@H](COC1CC2CCC1(C)C2(C)C)NC(=O)[C@@H](N)CC(=O)O (stereo partly drawn) [Example 11, α-L-Aspartyl-O-1-bornyl-L-serine methyl ester] the “Sweetness ratio (Compound:Sucrose)” value (panel of tasters; [2]) was 200, the “Sucrose Equivalent” value (panel of tasters; [2]) was 1% and the “Sweetness ratio (Compound:Sucrose)” value (panel of tasters; [3]) was 250. For the same compound, the “Sucrose Equivalent” value (panel of tasters; [3]) was 2.5%, the “Sweetness ratio (Compound:Sucrose)” value (panel of tasters; [5]) was 180 and the “Sucrose Equivalent” value (panel of tasters; [5]) was 4.5%.

In the case of COC(=O)[C@H](COC1(C)CCCCCC1)NC(=O)[C@@H](N)CC(=O)O [Example 12, α-L-aspartyl-O-(1-methyl-cycloheptyl)-L-serine methyl ester], the “Sweetness ratio (Compound:Sucrose)” value (panel of tasters; [3]) is reported as 200, the “Sucrose Equivalent” value (panel of tasters; [3]) is reported as 2% and the “Sweetness ratio (Compound:Sucrose)” value (panel of tasters; [6]) is reported as 120. The “Sucrose Equivalent” value (panel of tasters; [6]) was 6%.

With COC(=O)[C@H](COC1(C)CCCC1)NC(=O)[C@@H](N)CC(=O)O [I, L-aspartyl-O-(1-methylcyclopentyl)-L-serine methyl ester] the “Sweetness ratio (Compound:Sucrose)” value (panel of tasters; [2]) was 500, the “Sucrose Equivalent” value (panel of tasters; [2]) was 2.5% and the “Sweetness ratio (Compound:Sucrose)” value (panel of tasters; [3]) was 500. For the same compound, the “Sucrose Equivalent” value (panel of tasters; [3]) was 5%, the “Sweetness ratio (Compound:Sucrose)” value (panel of tasters; [5]) was 400 and the “Sucrose Equivalent” value (panel of tasters; [5]) was 10%. For the same compound, the “Sucrose Equivalent” value (panel of tasters; [6]) was 12% and the “temporal and sensory qualities” value (panel of tasters; determined by the panel of experts) was “excellent temporal and sensory qualities”.

For COC(=O)[C@H](COC1CCCCC1)NC(=O)[C@@H](N)CC(=O)O [cyclohexyl, α-L-aspartyl-O-(cyclohexyl)-L-serine methyl ester], the “Sweetness ratio (Compound:Sucrose)” value (panel of tasters; [3]) was 120, the “Sucrose Equivalent” value (panel of tasters; [3]) was 1.2% and the “Sweetness ratio (Compound:Sucrose)” value (panel of tasters; [5]) was 127. The “Sucrose Equivalent” value (panel of tasters; [5]) was 3.2%.

In the case of COC(=O)[C@H](COC1CCCC1)NC(=O)[C@@H](N)CC(=O)O [cyclopentyl, α-L-aspartyl-O-(cyclopentyl)-L-serine methyl ester], the “Sweetness ratio (Compound:Sucrose)” value (panel of tasters; [2]) is reported as 300, the “Sucrose Equivalent” value (panel of tasters; [2]) is reported as 1.5% and the “Sweetness ratio (Compound:Sucrose)” value (panel of tasters; [3]) is reported as 230. The “Sucrose Equivalent” value (panel of tasters; [3]) was 2.3%, the “Sweetness ratio (Compound:Sucrose)” value (panel of tasters; [5]) was 180 and the “Sucrose Equivalent” value (panel of tasters; [5]) was 4.5%.

In the case of COC(=O)[C@H](COC(C)(C)C)NC(=O)[C@@H](N)CC(=O)O [t-butyl, L-aspartyl-O-t-butyl-L-serine methyl ester, reference compound] (H-Asp-Ser(tBu)-OMe), the “Sweetness ratio (Compound:Sucrose)” value (panel of tasters; [6]) is listed as 120, the “Sucrose Equivalent” value (panel of tasters; [6]) is listed as 6% and the “Sucrose Equivalent (Table 2, sweetness values of alkyl ethers)” value [1] is listed as 140.

In the case of CCC(C)(C)OC[C@H](NC(=O)[C@@H](N)CC(=O)O)C(=O)OC [tert. C5 H11, L-aspartyl-O-t-amyl-L-serine methyl ester], the “Sucrose Equivalent (Table 2, sweetness values of alkyl ethers)” value [1] is listed as 230.

In the case of COC(=O)[C@H](COC1CCCC1C)NC(=O)[C@@H](N)CC(=O)O (stereo partly drawn) [trans-2-methylcyclopentyl, L-aspartyl-[O-(2-methylcyclopentyl)]-L-serine methyl ester], the “Sweetness ratio (Compound:Sucrose)” value (panel of tasters; [3]) is reported as 300, the “Sucrose Equivalent” value (panel of tasters; [3]) is reported as 3% and the “Sweetness ratio (Compound:Sucrose)” value (panel of tasters; [5]) is reported as 212. For the same compound, the “Sucrose Equivalent” value (panel of tasters; [5]) was 5.3%.

In the case of CCOC(=O)[C@H](COC1(C)CCCC1)NC(=O)[C@@H](N)CC(=O)O [α-L-Aspartyl-O-(1-methylcyclopentyl)-L-serine ethyl ester], the sweetness equivalent (panel of tasters; in vivo) is reported as 150 x sucrose.
